# Test results reported in PubChem BioAssay (NCI).
#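 The concentration for 50% growth inhibition is given as GI50. TGI: concentration producing complete growth inhibition.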
# Tests used:
# Assay in all cases: NCI-60 cell line screen, 384-well format
# [1] = tested on: NCI-H226 lung
# [2] = tested on: COLO 205 colon
# [3] = tested on: PC-3 prostate
# [4] = tested on: UO-31 renal
# [5] = tested on: SF-295 CNS
# [6] = tested on: T-47D breast
# [7] = tested on: MDA-MB-231 breast
# [8] = tested on: A549 NSCLC
# [9] = tested on: NCI/ADR-RES ovarian
# [10] = tested on: MOLT-4 leukemia
# [11] = tested on: SR leukemia
# [12] = tested on: SF-539 CNS
# [13] = tested on: OVCAR-8 ovarian
# [14] = tested on: HT29 colon
# [15] = tested on: SK-MEL-5 melanoma
# [16] = tested on: UACC-257 melanoma
# [17] = tested on: U251 glioblastoma
# [18] = tested on: HS 578T breast
# [19] = tested on: M14 melanoma
# [20] = tested on: RPMI-8226 leukemia
# [21] = tested on: HCT-15 colon
# [22] = tested on: MDA-MB-468 breast
# [23] = tested on: SW-620 colon
# [24] = tested on: SN12C renal
# [25] = tested on: KM12 colon
# [26] = tested on: SK-OV-3 ovarian
# [27] = tested on: NCI-H322M lung
# [28] = tested on: EKVX NSCLC
# [29] = tested on: RXF 393 renal
# [30] = tested on: SF-268 CNS
# [31] = tested on: HOP-92 NSCLC
# [32] = tested on: LOX IMVI melanoma
# [33] = tested on: 786-0 renal
# [34] = tested on: HCC-2998 colon
# [35] = tested on: MCF7 breast
# [36] = tested on: SNB-75 CNS
# [37] = tested on: OVCAR-4 ovarian
# [38] = tested on: TK-10 renal
# [39] = tested on: HL-60(TB) leukemia
# [40] = tested on: MDA-MB-435 melanoma
# [41] = tested on: CAKI-1 renal
# [42] = tested on: NCI-H522 lung
# [43] = tested on: K-562 leukemia
# [44] = tested on: OVCAR-5 ovarian
# [45] = tested on: SK-MEL-28 melanoma
# [46] = tested on: CCRF-CEM leukemia
# [47] = tested on: MALME-3M melanoma
# [48] = tested on: DU-145 prostate
# [49] = tested on: A498 renal
# [50] = tested on: HOP-62 NSCLC
# [51] = tested on: IGROV1 ovarian
# [52] = tested on: ACHN renal
# [53] = tested on: SNB-19 CNS
# [54] = tested on: NCI-H23 lung
# [55] = tested on: HCT-116 colon
# [56] = tested on: BT-549 breast
# [57] = tested on: NCI-H460 NSCLC
# [58] = tested on: OVCAR-3 ovarian
# [59] = tested on: UACC-62 melanoma
# [60] = tested on: SK-MEL-2 melanoma
structure (smiles),measurement,setting,value
C[C@H](Nc1ccc(C#N)n(C)c1=O)c1cc2cc(Cl)ccc2[nH]c1=O,GI50,[1],13 µM
same,TGI,[1],31 µM
same,GI50,[2],61.4 µM
same,TGI,[2],> 100 µM
same,GI50,[3],19.9 µM
same,TGI,[3],76.1 µM
same,GI50,[4],33.8 µM
same,TGI,[4],> 100 µM
same,GI50,[5],13.6 µM
same,TGI,[5],36.8 µM
same,GI50,[6],22.2 µM
same,TGI,[6],86.9 µM
same,GI50,[7],34.5 µM
same,TGI,[7],> 100 µM
same,GI50,[8],27.7 µM
same,TGI,[8],> 100 µM
same,GI50,[9],19.8 µM
same,TGI,[9],48.6 µM
same,GI50,[10],12.4 µM
same,TGI,[10],25.1 µM
same,GI50,[11],20.1 µM
same,TGI,[11],39.4 µM
same,GI50,[12],32.3 µM
same,TGI,[12],> 100 µM
same,GI50,[13],36.2 µM
same,TGI,[13],> 100 µM
same,GI50,[14],42.6 µM
same,TGI,[14],> 100 µM
same,GI50,[15],15.4 µM
same,TGI,[15],29 µM
same,GI50,[16],20.6 µM
same,TGI,[16],38.4 µM
same,GI50,[17],31.2 µM
same,TGI,[17],> 100 µM
same,GI50,[18],21.4 µM
same,TGI,[18],74 µM
same,GI50,[19],46 µM
same,TGI,[19],> 100 µM
same,GI50,[20],11.4 µM
same,TGI,[20],24.4 µM
same,GI50,[21],31.4 µM
same,TGI,[21],> 100 µM
same,GI50,[22],12.7 µM
same,TGI,[22],30.1 µM
same,GI50,[23],52.9 µM
same,TGI,[23],> 100 µM
same,GI50,[24],31.4 µM
same,TGI,[24],> 100 µM
same,GI50,[25],39.1 µM
same,TGI,[25],> 100 µM
same,GI50,[26],27.9 µM
same,TGI,[26],> 100 µM
same,GI50,[27],33.2 µM
same,TGI,[27],> 100 µM
same,GI50,[28],26.3 µM
same,TGI,[28],> 100 µM
same,GI50,[29],19.1 µM
same,TGI,[29],53 µM
same,GI50,[30],29.3 µM
same,TGI,[30],> 100 µM
same,GI50,[31],22.8 µM
same,TGI,[31],90.1 µM
same,GI50,[32],26.4 µM
same,TGI,[32],70.7 µM
same,GI50,[33],34 µM
same,TGI,[33],> 100 µM
same,GI50,[34],16.4 µM
same,TGI,[34],52.3 µM
same,GI50,[35],24 µM
same,TGI,[35],> 100 µM
same,GI50,[36],20.3 µM
same,TGI,[36],73.7 µM
same,GI50,[37],16.1 µM
same,TGI,[37],49.6 µM
same,GI50,[38],32.5 µM
same,TGI,[38],> 100 µM
same,GI50,[39],20.9 µM
same,TGI,[39],35.3 µM
same,GI50,[40],30.6 µM
same,TGI,[40],69.6 µM
same,GI50,[41],31.1 µM
same,TGI,[41],> 100 µM
same,GI50,[42],27.6 µM
same,TGI,[42],> 100 µM
same,GI50,[43],35.1 µM
same,TGI,[43],> 100 µM
same,GI50,[44],60.8 µM
same,TGI,[44],> 100 µM
same,GI50,[45],36.2 µM
same,TGI,[45],94 µM
same,GI50,[46],25.9 µM
same,TGI,[46],60.7 µM
same,GI50,[47],26.7 µM
same,TGI,[47],78.8 µM
same,GI50,[48],29.4 µM
same,TGI,[48],> 100 µM
same,GI50,[49],29.6 µM
same,TGI,[49],98 µM
same,GI50,[50],16.4 µM
same,TGI,[50],42.9 µM
same,GI50,[51],17 µM
same,TGI,[51],42.8 µM
same,GI50,[52],30.8 µM
same,TGI,[52],> 100 µM
same,GI50,[53],41.6 µM
same,TGI,[53],> 100 µM
same,GI50,[54],25.3 µM
same,TGI,[54],75.8 µM
same,GI50,[55],29.3 µM
same,TGI,[55],> 100 µM
same,GI50,[56],19.4 µM
same,TGI,[56],54.2 µM
same,GI50,[57],19.3 µM
same,TGI,[57],52 µM
same,GI50,[58],17.8 µM
same,TGI,[58],40.7 µM
Nc1cc2c(cc1Cl)C(=O)c1ccccc1C2=O,GI50,[1],1.86 µM
same,TGI,[1],17 µM
same,GI50,[2],10.4 µM
same,TGI,[2],22.6 µM
same,GI50,[3],10.1 µM
same,TGI,[3],22 µM
same,GI50,[5],2.86 µM
same,TGI,[5],9.19 µM
same,GI50,[8],6.15 µM
same,TGI,[8],19.9 µM
same,GI50,[9],4.35 µM
same,TGI,[9],17.5 µM
same,GI50,[10],23.8 µM
same,TGI,[10],83.7 µM
same,GI50,[12],1.66 µM
same,TGI,[12],3.06 µM
same,GI50,[13],4.16 µM
same,TGI,[13],13.8 µM
same,GI50,[14],26 µM
same,TGI,[14],> 100 µM
same,GI50,[15],3.59 µM
same,TGI,[15],50.6 µM
same,GI50,[16],17.6 µM
same,TGI,[16],52 µM
same,GI50,[17],3.21 µM
same,TGI,[17],11 µM
same,GI50,[18],4.51 µM
same,TGI,[18],15.8 µM
same,GI50,[19],14.2 µM
same,TGI,[19],30.4 µM
same,GI50,[20],3.13 µM
same,TGI,[20],12 µM
same,GI50,[21],15 µM
same,TGI,[21],32.3 µM
same,GI50,[22],0.228 µM
same,TGI,[22],9.07 µM
same,GI50,[23],11.8 µM
same,TGI,[23],25.1 µM
same,GI50,[24],4.44 µM
same,TGI,[24],16.9 µM
same,GI50,[25],11.1 µM
same,TGI,[25],24 µM
same,GI50,[26],4.81 µM
same,TGI,[26],18.4 µM
same,GI50,[27],6.15 µM
same,TGI,[27],24 µM
same,GI50,[28],6.17 µM
same,TGI,[28],20.6 µM
same,GI50,[29],4.01 µM
same,TGI,[29],15 µM
same,GI50,[30],11.6 µM
same,TGI,[30],24 µM
same,GI50,[31],3.85 µM
same,TGI,[31],13.7 µM
same,GI50,[32],0.276 µM
same,TGI,[32],16.4 µM
same,GI50,[33],2.35 µM
same,TGI,[33],8.08 µM
same,GI50,[59],7.21 µM
same,TGI,[59],20.9 µM
same,GI50,[34],11 µM
same,TGI,[34],> 100 µM
same,GI50,[35],11.1 µM
same,TGI,[35],23.3 µM
same,GI50,[36],2.92 µM
same,TGI,[36],7.13 µM
same,GI50,[37],1.1 µM
same,TGI,[37],9.47 µM
same,GI50,[38],2.63 µM
same,TGI,[38],12.9 µM
same,GI50,[39],> 100 µM
same,TGI,[39],> 100 µM
same,GI50,[40],19.9 µM
same,TGI,[40],44.3 µM
same,GI50,[41],13.2 µM
same,TGI,[41],26.3 µM
same,GI50,[42],10.2 µM
same,TGI,[42],21.9 µM
same,GI50,[43],24.9 µM
same,TGI,[43],74.7 µM
same,GI50,[45],17.8 µM
same,TGI,[45],42.2 µM
same,GI50,[46],71 µM
same,TGI,[46],> 100 µM
same,GI50,[47],17.2 µM
same,TGI,[47],47.8 µM
same,GI50,[48],14.3 µM
same,TGI,[48],29 µM
same,GI50,[49],2.18 µM
same,TGI,[49],5.32 µM
same,GI50,[50],2.34 µM
same,TGI,[50],4.24 µM
same,GI50,[51],1.33 µM
same,TGI,[51],17.9 µM
same,GI50,[52],2.47 µM
same,TGI,[52],12.7 µM
same,GI50,[53],3.59 µM
same,TGI,[53],12.8 µM
same,GI50,[54],2.65 µM
same,TGI,[54],11.3 µM
same,GI50,[55],3.1 µM
same,TGI,[55],12.3 µM
same,GI50,[56],2.67 µM
same,TGI,[56],8.24 µM
same,GI50,[57],3.76 µM
same,TGI,[57],13.9 µM
same,GI50,[60],2.56 µM
same,TGI,[60],7.19 µM
same,GI50,[58],6.94 µM
same,TGI,[58],20.4 µM
